Patent US20250129430A1, “HIGH ATP-AFFINITY PROTEIN AS THERAPEUTIC TARGET FOR INTRACTABLE CANCER MOLECULAR SUBTYPES AND INHIBITOR THEREOF” (VeraVerse Co., Ltd., priority 2021, published 2025)

Legend:
Format in all cases: cell-based, human
Hs746T = assay: Cell viability drug screen, 12-point dose-response AUC; conditions: Hs746T cells; 72 hours; 12-point dose-response
Summary of the method: (§1)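 Viability: luminescence (Glo kit, 15 min RT), normalized to 0.5% DMSO vehicle. Dosing: half-log, 12 concentrations, 72 h. Cells: 5×10^3/well, treated 24 h after plating. Value: trapezoidal AUC, mean of repeats.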

MKN45 = assay: as above; conditions: MKN45 cells; 72 hours; 12-point dose-response
Summary of the method: (§2)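 AUC comes from 12-point half-log dose–response curves, normalized to DMSO-treated cells and integrated trapezoidally, repeats averaged. Luminescent viability read after 72 h compound exposure at 37 °C; cells plated 5×10^3 per well 24 h before dosing.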

SNU1750 = assay: as above; conditions: SNU1750 cells; 72 hours; 12-point dose-response
Summary of the method: as §1

SK4 = assay: as above; conditions: SK4 cells; 72 hours; 12-point dose-response
Summary of the method: as §1

SNU484 = assay: as above; conditions: SNU484 cells; 72 hours; 12-point dose-response
Summary of the method: as §1

NCC59 = assay: as above; conditions: NCC59 cells; 72 hours; 12-point dose-response
Summary of the method: as §1

SNU601 = assay: as above; conditions: SNU601 cells; 72 hours; 12-point dose-response
Summary of the method: as §1

NCC19 = assay: as above; conditions: NCC19 cells; 72 hours; 12-point dose-response
Summary of the method: as §1

SNU620 = assay: as above; conditions: SNU620 cells; 72 hours; 12-point dose-response
Summary of the method: as §1

NCI_N87 = assay: as above; conditions: NCI_N87 cells; 72 hours; 12-point dose-response
Summary of the method: as §1

NCC24 = assay: as above; conditions: NCC24 cells; 72 hours; 12-point dose-response
Summary of the method: as §1

MKN1 = assay: as above; conditions: MKN1 cells; 72 hours; 12-point dose-response
Summary of the method: as §1

MKN74 = assay: as above; conditions: MKN74 cells; 72 hours; 12-point dose-response
Summary of the method: as §2

YCC2 = assay: as above; conditions: YCC2 cells; 72 hours; 12-point dose-response
Summary of the method: as §1

MKN28 = assay: as above; conditions: MKN28 cells; 72 hours; 12-point dose-response
Summary of the method: as §1

SNU668 = assay: as above; conditions: SNU668 cells; 72 hours; 12-point dose-response
Summary of the method: as §1

SNU638 = assay: as above; conditions: SNU638 cells; 72 hours; 12-point dose-response
Summary of the method: as §1

OCUM1 = assay: as above; conditions: OCUM1 cells; 72 hours; 12-point dose-response
Summary of the method: as §1

AGS = assay: as above; conditions: AGS cells; 72 hours; 12-point dose-response
Summary of the method: as §2

SNU16 = assay: as above; conditions: SNU16 cells; 72 hours; 12-point dose-response
Summary of the method: as §1

SNU1967 = assay: as above; conditions: SNU1967 cells; 72 hours; 12-point dose-response
Summary of the method: as §1

SNU1 = assay: as above; conditions: SNU1 cells; 72 hours; 12-point dose-response
Summary of the method: as §1

YCC11 = assay: as above; conditions: YCC11 cells; 72 hours; 12-point dose-response
Summary of the method: as §1

NCC20 = assay: as above; conditions: NCC20 cells; 72 hours; 12-point dose-response
Summary of the method: as §1

SNU216 = assay: as above; conditions: SNU216 cells; 72 hours; 12-point dose-response
Summary of the method: as §2

YCC3 = assay: as above; conditions: YCC3 cells; 72 hours; 12-point dose-response
Summary of the method: as §1

KATO3 = assay: as above; conditions: KATO3 cells; 72 hours; 12-point dose-response
Summary of the method: as §1

SNU719 = assay: as above; conditions: SNU719 cells; 72 hours; 12-point dose-response
Summary of the method: as §2

[1] = system: non-SEM-type gastric cancer cell line; assay: Cell viability drug screen, AUC summary over non-SEM-type lines; conditions: in the non-SEM-type gastric cancer cell line
[2] = system: SEM-type gastric cancer cell line; assay: Cell viability drug screen, AUC summary over SEM-type lines
Experimental: An FDA-approved small-molecule pharmacological compound (#L1300) and an anticancer compound for research (#L2000) were purchased from Selecckchem and a 10 mM solution was prepared in DMSO. A total of 1,345 compounds were tested the cell viability of the seven EMT gastric cancer cell lines.
Cells cultured for cell-based drug assay were inoculated into a 96-well white optical plate (Corning) at 5×10^3 cells per well. After 24 hours after inoculation, a 2.5 MJT (primary screen) or a half-log 12-serial diluent (secondary screen) of the pharmacological compound contained in DMSO is added to the cells with a robot using a BioMek FXp liquid processor (Beckman) to add to the cells at 50 mM. The final drug concentration in the 5 ns range and the DMSO specification control (0.5%) were calculated. The cells were then further incubated at 37° C. in a 5% CO2 incubator for 72 hours prior to measuring cell viability using the extra-GLO assay kit (Promega). The luminescent properties were measured after 15 min incubation at room temperature using a plate stacker equipped with a plate stacker. The normalized viability for the DMSO-based control was measured to generate a cell line-specific 12-point dose-response curve for each pharmacological compound, and then the area under the curve (AUC) was calculated using a trapezoidal method.

FU97 = assay: Cell viability drug screen, 12-point dose-response AUC; conditions: FU97 cells; 72 hours; 12-point dose-response
Summary of the method: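 Trapezoidal AUC of a 12-point, DMSO-normalized dose-response curve. Luminescent viability was measured after 72 h of exposure at 37° C to half-log serial dilutions (0.5% DMSO control), dosed 24 h after plating FU97 cells at 5×10^3 per well.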

COCCn1c2c([n+](Cc3cnccn3)c1C)C(=O)c1ccccc1C2=O [YM155]
area under the viability curve (AUC), normalized (Hs746T): −1.376
area under the viability curve (AUC), normalized (MKN45): 0.6792
area under the viability curve (AUC), normalized (SNU1750): −2.624
area under the viability curve (AUC), normalized (SK4): −1.314
area under the viability curve (AUC), normalized (SNU484): −2.56
area under the viability curve (AUC), normalized (NCC59): 0.1386
area under the viability curve (AUC), normalized (SNU601): 1.661
area under the viability curve (AUC), normalized (NCC19): 3.608
area under the viability curve (AUC), normalized (SNU620): 1.29
area under the viability curve (AUC), normalized (NCI_N87): 0.4168
area under the viability curve (AUC), normalized (NCC24): −0.6903
area under the viability curve (AUC), normalized (MKN1): −2.0115
area under the viability curve (AUC), normalized (MKN74): −1.305
area under the viability curve (AUC), normalized (YCC2): −0.4228
area under the viability curve (AUC), normalized (MKN28): −1.021
area under the viability curve (AUC), normalized (SNU668): −0.2961
area under the viability curve (AUC), normalized (SNU638): 0.5099
area under the viability curve (AUC), normalized (OCUM1): 1.685
area under the viability curve (AUC), normalized (AGS): −1.512
area under the viability curve (AUC), normalized (SNU16): 2.497
area under the viability curve (AUC), normalized (SNU1967): −0.2044
area under the viability curve (AUC), normalized (SNU1): 1.212
area under the viability curve (AUC), normalized (YCC11): −1.419
area under the viability curve (AUC), normalized (NCC20): 0
area under the viability curve (AUC), normalized (SNU216): 0.09958
area under the viability curve (AUC), normalized (YCC3): 1.325
area under the viability curve (AUC), normalized (KATO3): −0.3081
area under the viability curve (AUC), normalized (SNU719): 3.789
AUC value [1]: high
normalized viability AUC [2]: negative
area under the viability curve (AUC), normalized (FU97): 1.301
